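Test compounds were applied to cells in 96-well plates for 48 hours at 5 doses. GI50 is the concentration that inhibits growth by half. The concentration for full growth arrest is given as TGI.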
Columns and labels:
Test in all cases: NCI tumour cell line growth inhibition, 48 h
[1] = system: 786-0 renal
[2] = system: A498 renal
[3] = system: A549 NSCLC
[4] = system: ACHN renal
[5] = system: BT-549 breast
[6] = system: CAKI-1 renal
[7] = system: CCRF-CEM leukemia
[8] = system: COLO 205 colon
[9] = system: DU-145 prostate
[10] = system: EKVX NSCLC
[11] = system: HCC-2998 colon
[12] = system: HCT-116 colon
[13] = system: HCT-15 colon
[14] = system: HL-60(TB) leukemia
[15] = system: HOP-62 NSCLC
[16] = system: HOP-92 NSCLC
[17] = system: HS 578T breast
[18] = system: HT29 colon
[19] = system: IGROV1 ovarian
[20] = system: K-562 leukemia
[21] = system: KM12 colon
[22] = system: LOX IMVI melanoma
[23] = system: M14 melanoma
[24] = system: MALME-3M melanoma
[25] = system: MCF7 breast
[26] = system: MDA-MB-231 breast
[27] = system: MDA-MB-435
[28] = system: MOLT-4 leukemia
[29] = system: NCI-H226 lung
[30] = system: NCI-H23 lung
[31] = system: NCI-H460 lung
[32] = system: NCI-H522 lung
[33] = system: NCI/ADR-RES ovarian
[34] = system: OVCAR-3 ovarian
[35] = system: OVCAR-4 ovarian
[36] = system: OVCAR-5 ovarian
[37] = system: OVCAR-8 ovarian
[38] = system: PC-3 prostate
[39] = system: RPMI-8226 leukemia
[40] = system: RXF 393 renal
[41] = system: SF-268 CNS
[42] = system: SF-295 CNS
[43] = system: SF-539 CNS
[44] = system: SK-MEL-2 melanoma
[45] = system: SK-MEL-28 melanoma
[46] = system: SK-MEL-5 melanoma
[47] = system: SK-OV-3 ovarian
[48] = system: SN12C renal
[49] = system: SNB-19 CNS
[50] = system: SNB-75 CNS
[51] = system: SR leukemia
[52] = system: SW-620 colon
[53] = system: T-47D breast
[54] = system: TK-10 renal
[55] = system: U251 CNS
[56] = system: UACC-257 melanoma
[57] = system: UACC-62 melanoma
[58] = system: UO-31 renal

For `Cc1ccc(NC2=CC(=O)C(=O)c3ccccc32)cc1`, which GI50 [1] is on record?
The GI50 was 15 µM.

What about the TGI [1] of the same compound?
Its TGI is greater than 100 µM.

What about the GI50 [2] of the same compound?
The GI50 was 1.32 µM.

And the TGI [2]?
The TGI was 5.41 µM.

What about the GI50 [3] of the same compound?
The GI50 was 1.72 µM.

And the TGI [3]?
The TGI was 3.68 µM.

What about the GI50 [4] of the same compound?
The GI50 was 1.92 µM.

And the TGI [4]?
Its TGI is 5.33 µM.

What about the GI50 [5] of the same compound?
Its GI50 is 1.73 µM.

What about the TGI [5] of the same compound?
Its TGI is 3.31 µM.

What about the GI50 [6] of the same compound?
Its GI50 is 3.14 µM.

And the TGI [6]?
The TGI was 16.5 µM.

What about the GI50 [7] of the same compound?
Its GI50 is 5.62 µM.

What about the TGI [7] of the same compound?
Its TGI is greater than 100 µM.

What about the GI50 [8] of the same compound?
The GI50 was 1.65 µM.

What about the TGI [8] of the same compound?
Its TGI is 3.1 µM.

And the GI50 [9]?
The GI50 was 1.53 µM.

What about the TGI [9] of the same compound?
Its TGI is 2.91 µM.

And the GI50 [10]?
The GI50 was 4 µM.

What about the TGI [10] of the same compound?
The TGI was 18.9 µM.

And the GI50 [11]?
The GI50 was 2.11 µM.

And the TGI [11]?
The TGI was 4.89 µM.

What about the GI50 [12] of the same compound?
Its GI50 is 2.23 µM.

What about the TGI [12] of the same compound?
Its TGI is 9.13 µM.

What about the GI50 [13] of the same compound?
The GI50 was 1.49 µM.

What about the TGI [13] of the same compound?
Its TGI is 3.91 µM.

And the GI50 [14]?
The GI50 was 2.77 µM.

What about the TGI [14] of the same compound?
The TGI was greater than 100 µM.

What about the GI50 [15] of the same compound?
The GI50 was 1.8 µM.

And the TGI [15]?
The TGI was 4.33 µM.

What about the GI50 [16] of the same compound?
Its GI50 is 5.71 µM.

What about the TGI [16] of the same compound?
The TGI was 20.2 µM.

What about the GI50 [17] of the same compound?
Its GI50 is 2.54 µM.

What about the TGI [17] of the same compound?
Its TGI is 7.26 µM.

What about the GI50 [18] of the same compound?
The GI50 was 2.14 µM.

And the TGI [18]?
Its TGI is 4.47 µM.

What about the GI50 [19] of the same compound?
The GI50 was 2.73 µM.

What about the TGI [19] of the same compound?
Its TGI is 12.9 µM.

And the GI50 [20]?
Its GI50 is 3.47 µM.

And the TGI [20]?
The TGI was greater than 100 µM.

What about the GI50 [21] of the same compound?
The GI50 was 2.59 µM.

And the TGI [21]?
The TGI was 9.73 µM.

What about the GI50 [22] of the same compound?
The GI50 was 2.11 µM.

And the TGI [22]?
Its TGI is 6.45 µM.

And the GI50 [23]?
The GI50 was 1.9 µM.

And the TGI [23]?
The TGI was 3.79 µM.

What about the GI50 [24] of the same compound?
The GI50 was 1.63 µM.

What about the TGI [24] of the same compound?
The TGI was 3.17 µM.

And the GI50 [25]?
Its GI50 is 1.54 µM.

What about the TGI [25] of the same compound?
The TGI was 3.63 µM.

What about the GI50 [26] of the same compound?
Its GI50 is 2.57 µM.

What about the TGI [26] of the same compound?
Its TGI is 15.8 µM.

What about the GI50 [27] of the same compound?
Its GI50 is 1.74 µM.

What about the TGI [27] of the same compound?
Its TGI is 3.2 µM.

And the GI50 [28]?
The GI50 was 3.71 µM.

What about the TGI [28] of the same compound?
Its TGI is greater than 100 µM.

And the GI50 [29]?
The GI50 was 1.92 µM.

And the TGI [29]?
Its TGI is 4.46 µM.

What about the GI50 [30] of the same compound?
Its GI50 is 1.56 µM.

And the TGI [30]?
The TGI was 4.1 µM.

What about the GI50 [31] of the same compound?
Its GI50 is 1.7 µM.

And the TGI [31]?
Its TGI is 3.94 µM.

What about the GI50 [32] of the same compound?
The GI50 was 1.45 µM.

And the TGI [32]?
The TGI was 3.18 µM.

And the GI50 [33]?
Its GI50 is 2.17 µM.

And the TGI [33]?
Its TGI is 17.4 µM.

And the GI50 [34]?
The GI50 was 1.66 µM.

What about the TGI [34] of the same compound?
Its TGI is 4.86 µM.

What about the GI50 [35] of the same compound?
Its GI50 is 1.39 µM.

And the TGI [35]?
The TGI was 2.72 µM.

And the GI50 [36]?
Its GI50 is 1.9 µM.

And the TGI [36]?
Its TGI is 3.54 µM.

And the GI50 [37]?
Its GI50 is 2.4 µM.

And the TGI [37]?
Its TGI is 7.82 µM.

What about the GI50 [38] of the same compound?
The GI50 was 1.87 µM.

What about the TGI [38] of the same compound?
Its TGI is 15.7 µM.

And the GI50 [39]?
Its GI50 is 3.55 µM.

And the TGI [39]?
Its TGI is greater than 100 µM.

And the GI50 [40]?
The GI50 was 3.32 µM.

What about the TGI [40] of the same compound?
The TGI was 13.7 µM.

And the GI50 [41]?
Its GI50 is 2.78 µM.

And the TGI [41]?
Its TGI is 12.1 µM.

What about the GI50 [42] of the same compound?
The GI50 was 1.7 µM.

What about the TGI [42] of the same compound?
Its TGI is 3.15 µM.

And the GI50 [43]?
The GI50 was 1.8 µM.

And the TGI [43]?
The TGI was 3.77 µM.

And the GI50 [44]?
The GI50 was 1.86 µM.

And the TGI [44]?
Its TGI is 4.06 µM.

And the GI50 [45]?
Its GI50 is 1.84 µM.

And the TGI [45]?
The TGI was 3.58 µM.

And the GI50 [46]?
The GI50 was 1.38 µM.

What about the TGI [46] of the same compound?
The TGI was 2.67 µM.

And the GI50 [47]?
Its GI50 is 11.3 µM.

What about the TGI [47] of the same compound?
The TGI was 23.5 µM.

And the GI50 [48]?
The GI50 was 1.65 µM.

What about the TGI [48] of the same compound?
The TGI was 3.32 µM.

And the GI50 [49]?
Its GI50 is 2.09 µM.

What about the TGI [49] of the same compound?
Its TGI is 4.96 µM.

What about the GI50 [50] of the same compound?
The GI50 was 0.779 µM.

And the TGI [50]?
The TGI was 2.11 µM.

And the GI50 [51]?
The GI50 was 3.96 µM.

And the TGI [51]?
Its TGI is greater than 100 µM.

And the GI50 [52]?
Its GI50 is 1.92 µM.

What about the TGI [52] of the same compound?
Its TGI is 4.01 µM.

What about the GI50 [53] of the same compound?
The GI50 was 3.68 µM.

What about the TGI [53] of the same compound?
The TGI was 18.1 µM.

What about the GI50 [54] of the same compound?
The GI50 was 2.83 µM.

And the TGI [54]?
The TGI was 11 µM.

What about the GI50 [55] of the same compound?
The GI50 was 2.01 µM.

What about the TGI [55] of the same compound?
The TGI was 5.71 µM.

And the GI50 [56]?
The GI50 was 1.43 µM.

And the TGI [56]?
The TGI was 2.8 µM.

And the GI50 [57]?
The GI50 was 1.73 µM.

What about the TGI [57] of the same compound?
Its TGI is 3.23 µM.

And the GI50 [58]?
The GI50 was 1.17 µM.

And the TGI [58]?
The TGI was 3.79 µM.
